Like-named read-outs stand apart in the source and are kept apart here.
Legend:
Format in all cases: cell-based, Staphylococcus epidermidis
Conditions in all cases: for MIC: Staphylococcus epidermidis
[1] = tested on: S. epidermidis 18972; experiment: MBIC/MIC secondary assay (crystal violet biofilm staining / OD600 growth)
Method: (§1) Assays for detecting and measuring bacterial biofilm formation are known in the art. An example of a biofilm formation assay useful in detecting and characterizing biofilm inhibitor compounds is described in Example 1, infra. Briefly, bacterial cells are inoculated into growth medium in individual wells of a 96-well assay plate in the presence or absence of a compound (known biofilm inhibitor or test compound). After incubation for a specified time, growth medium and non-biofilm bacterial cells are removed from each of the wells. The bacterial cells in any biofilms that are adhered to the surface of a well are fixed by addition of ethanol. The ethanol is removed, and the fixed biofilm bacteria cells are stained with crystal violet (CV). The intensity of CV staining is directly correlated with bacterial biofilm formation and is measured in the wells by reading the optical density at 600 nm (OD600). The difference in biofilm formation between untreated control and treated cultures provides an indication of relative biofilm inhibition activity (anti-biofilm activity). Use of different concentrations of an inhibitor in multiple and otherwise duplicate cultures permits determination of a compound's Minimal Biofilm Inhibitory Concentration (MBIC), which is defined herein as the lowest concentration of a compound that inhibits biofilm formation by at least 80% (i.e., ≧80%) compared to untreated control cultures.
(§2) A higher throughput was achieved by formatting the assay for use in flat-bottomed 96-well assay plates (Costar 3590 assay plates, Corning Life Sciences, Lowell, Mass.). The biofilm cultures grew on the bottoms of each well in a surface attached mode. In each assay plate, columns 1 and 12 contained untreated cultures, which served as negative controls (0% biofilm inhibition). Each of the assay wells in columns 2-11 contained a unique small molecule from the Microbiotix Screening Library (MSL) at a final concentration of 100 μM. Assay plates were inoculated with 200 μl/well of a culture of Staphylococcus pidermidis 18972 in 0.5×Tryptic Soy Broth (TSB; Becton Dickinson, Franklin Lakes, N.J.) in which the concentration of glucose was adjusted to 0.25% (w/v). The bacterial inocula were prepared by making a 1:100 dilution of an overnight culture grown in TSB in the media used for the screen. After inoculation, assay plates were sealed with foil tape and incubated at 37° C. for 18-20 hours (h). The optical density at 600 nm (OD600) was measured for each well using a VICTOR2V™ multiplate reader (Perkin Elmer, Waltham, Mass.) in order to quantify overall bacterial growth. The assay plates were processed to remove bacterial growth media and non-biofilm cells from the bottom of each assay well. This was accomplished by using a BioTek ELx405™ plate washer (BioTek Instruments, Inc., Winooski, Vt.). Biofilm bacteria were fixed by addition of 50 μl of 95% ethanol for 30 minutes (min). The ethanol was removed, and the fixed biofilm cultures were stained with 50 μl of 0.06% crystal violet (CV) for 60 min. Excess CV was removed by repeated washes using the BioTek ELx405™ plate washer. The amount of CV bound to each assay well was quantified by measuring OD600 using a VICTOR2V™ plate reader (Perkin Elmer).
(§3) A secondary assay provided a quantitative measure of both anti-biofilm activity and antibacterial activity in terms of the Minimal Biofilm Inhibitory Concentration (MBIC) and the Minimal Inhibitory Concentration (MIC), respectively. The MBIC and MIC are defined as the lowest compound concentrations that inhibit biofilm formation and bacterial growth, respectively, by at least 80% (i.e., ≧80%). The MBIC/MIC assay is formatted in a manner that is similar to the Microbroth dilution assays described by the Clinical and Laboratory Standards Institute (CLSI; formerly NCCLS) in protocol M7-A7. The growth conditions were optimized for biofilm growth in 96-well assay plates such that the resulting CV staining was within the linear range of detection. […]

[2] = tested on: S. epidermidis strain 1457; experiment: MBIC/MIC secondary assay
Method: as §1, §2, §3

[3] = tested on: S. epidermidis strain 35894; experiment: MBIC/MIC secondary assay
Method: as §1, §2, §3

[4] = tested on: S. epidermidis strain O47; experiment: MBIC/MIC secondary assay
Method: as §1, §2, §3

[5] = S. epidermidis strain 18972, Table 4

Row | Structure (SMILES) | MBIC [1, 5] [µM] | MIC [1]; 18972 [µM] | MBIC ([2]; S. epidermidis strain 1457) | MIC [2]; 1457 [µM] | MBIC ([3]; S. epidermidis strain 35894) [µM] | MIC [3]; 35894 [µM] | MBIC ([4]; S. epidermidis strain O47) [µM] | MIC ([4]; O47) [µM] | MIC ([1]; S. epidermidis strain 18972, Table 4, read-out: MIC) [µM] | MIC ([2]; S. epidermidis strain 1457, read-out: MIC) [µM] | MIC ([3]; S. epidermidis strain 35894, read-out: MIC) [µM] | MIC ([4]; S. epidermidis strain O47, read-out: MIC) [µM]
1 | CCOc1cc(/C=C2\SC(=S)N(c3ccc(F)cc3)C2=O)ccc1O [Compound 4, 3-(4-fluorophenyl)-5-(3-ethoxy-4-hydroxybenzylidene)-2-thioxothiazolidin-4-one] | 25 | ≥ 100 | 50 µM | ≥ 100 | 25 | ≥ 100 | 12.5 | ≥ 100 |  |  |  | 
2 | CCOc1cc(/C=C2\SC(=S)N(c3cccc(F)c3)C2=O)ccc1O [Compound 8, 3-(3-fluorophenyl)-5-(3-ethoxy-4-hydroxybenzylidene)-2-thioxothiazolidin-4-one] | 50 | ≥ 100 | 50 µM | ≥ 100 | 25 | ≥ 100 | 25 | ≥ 100 |  |  |  | 
3 | C=CCOc1cc(/C=C2\SC(=S)N(c3ccc(F)cc3)C2=O)ccc1O [Compound 29, 3-(4-fluorophenyl)-5-(3-allyloxy-4-hydroxybenzylidene)-2-thioxothiazolidin-4-one] | 25 |  | 25 µM |  | 25 |  | 12.5 |  | ≥ 100 | ≥ 100 | ≥ 100 | ≥ 100
4 | CCOc1cc(/C=C2\SC(=S)N(c3cccc(C#N)c3)C2=O)ccc1O [Compound 34, 3-(3-cyanophenyl)-5-(3-ethoxy-4-hydroxybenzylidene)-2-thioxothiazolidin-4-one] | 25 | ≥ 100 | ≧100 μM | ≥ 100 | 12.5 | ≥ 100 | 1.6 | ≥ 100 |  |  |  | 
5 | CCOc1cc(/C=C2\SC(=S)N(c3cccnc3)C2=O)ccc1O [Compound 36, 3-(pyridin-3-yl)-5-(3-ethoxy-4-hydroxybenzylidene)-2-thioxothiazolidin-4-one] | 12.5 | ≥ 100 | 12.5 µM | ≥ 100 | 12.5 | ≥ 100 | 50 | ≥ 100 |  |  |  | 
6 | CCOc1cc(/C=C2\SC(=S)N(c3ccc(F)nc3)C2=O)ccc1O [Compound 40, 3-(6-fluoropyridin-3-yl)-5-(3-ethoxy-4-hydroxybenzylidene)-2-thioxothiazolidin-4-one] | 25 | ≥ 100 | 25 µM | ≥ 100 | 6.3 | ≥ 100 | 6.3 | ≥ 100 |  |  |  | 
